Numbers after ± are expanded uncertainties.
What was measured:
[1] = 101.33 kPa, Liquid, Vibrating tube method
[2] = xn = mol fraction of the nth substance listed; conditions: 101 kPa, Liquid, Vibrating tube method

`CCNC=O` [N-ethylformamide] gave a mass density ([1]; 293.15 K) of 951.59 ± 0.24 kg/m3, a mass density ([1]; 298.15 K) of 947.48 ± 0.24 kg/m3 and a mass density ([1]; 303.15 K) of 943.29 ± 0.24 kg/m3. The mass density ([1]; 308.15 K) was 939.04 ± 0.24 kg/m3 and the mass density ([1]; 313.15 K) was 934.78 ± 0.24 kg/m3.

`CCNC=O` [N-ethylformamide] + CCCOC(C)=O showed a mass density ([2]; 293.15 K, x1 = 0.1294) of 892.25 ± 0.19 kg/m3, a mass density ([2]; 293.15 K, x1 = 0.2456) of 899.54 ± 0.19 kg/m3 and a mass density ([2]; 293.15 K, x1 = 0.3565) of 906.52 ± 0.2 kg/m3. It also gave a mass density ([2]; 293.15 K, x1 = 0.4694) of 913.89 ± 0.21 kg/m3, a mass density ([2]; 293.15 K, x1 = 0.5596) of 919.91 ± 0.21 kg/m3 and a mass density ([2]; 293.15 K, x1 = 0.6587) of 926.72 ± 0.22 kg/m3. For the same compound, the mass density ([2]; 293.15 K, x1 = 0.7478) was 933 ± 0.23 kg/m3, the mass density ([2]; 293.15 K, x1 = 0.8363) was 939.47 ± 0.24 kg/m3 and the mass density ([2]; 293.15 K, x1 = 0.9182) was 945.56 ± 0.25 kg/m3. For the same compound, the mass density ([2]; 298.15 K, x1 = 0.1294) was 887.29 ± 0.19 kg/m3, the mass density ([2]; 298.15 K, x1 = 0.2456) was 894.73 ± 0.19 kg/m3 and the mass density ([2]; 298.15 K, x1 = 0.3565) was 901.8 ± 0.2 kg/m3. The mass density ([2]; 298.15 K, x1 = 0.4694) was 909.26 ± 0.21 kg/m3, the mass density ([2]; 298.15 K, x1 = 0.5596) was 915.35 ± 0.21 kg/m3 and the mass density ([2]; 298.15 K, x1 = 0.6587) was 922.25 ± 0.22 kg/m3. For the same compound, the mass density ([2]; 298.15 K, x1 = 0.7478) was 928.63 ± 0.23 kg/m3, the mass density ([2]; 298.15 K, x1 = 0.8363) was 935.19 ± 0.24 kg/m3 and the mass density ([2]; 298.15 K, x1 = 0.9182) was 941.36 ± 0.25 kg/m3. The mass density ([2]; 303.15 K, x1 = 0.1294) was 882.35 ± 0.19 kg/m3, the mass density ([2]; 303.15 K, x1 = 0.2456) was 889.93 ± 0.19 kg/m3 and the mass density ([2]; 303.15 K, x1 = 0.3565) was 897.09 ± 0.2 kg/m3. It also gave a mass density ([2]; 303.15 K, x1 = 0.4694) of 904.67 ± 0.21 kg/m3, a mass density ([2]; 303.15 K, x1 = 0.5596) of 910.86 ± 0.21 kg/m3 and a mass density ([2]; 303.15 K, x1 = 0.6587) of 917.78 ± 0.22 kg/m3. It also gave a mass density ([2]; 303.15 K, x1 = 0.7478) of 924.29 ± 0.23 kg/m3, a mass density ([2]; 303.15 K, x1 = 0.8363) of 930.93 ± 0.24 kg/m3 and a mass density ([2]; 303.15 K, x1 = 0.9182) of 937.11 ± 0.25 kg/m3. For the same compound, the mass density ([2]; 308.15 K, x1 = 0.1294) was 877.39 ± 0.19 kg/m3, the mass density ([2]; 308.15 K, x1 = 0.2456) was 885.05 ± 0.2 kg/m3 and the mass density ([2]; 308.15 K, x1 = 0.3565) was 892.4 ± 0.2 kg/m3. The mass density ([2]; 308.15 K, x1 = 0.4694) was 900.06 ± 0.21 kg/m3, the mass density ([2]; 308.15 K, x1 = 0.5596) was 906.31 ± 0.21 kg/m3 and the mass density ([2]; 308.15 K, x1 = 0.6587) was 913.38 ± 0.22 kg/m3. It also gave a mass density ([2]; 308.15 K, x1 = 0.7478) of 919.92 ± 0.23 kg/m3, a mass density ([2]; 308.15 K, x1 = 0.8363) of 926.57 ± 0.24 kg/m3 and a mass density ([2]; 308.15 K, x1 = 0.9182) of 932.85 ± 0.25 kg/m3. It also gave a mass density ([2]; 313.15 K, x1 = 0.1294) of 872.28 ± 0.19 kg/m3, a mass density ([2]; 313.15 K, x1 = 0.2456) of 880.14 ± 0.2 kg/m3 and a mass density ([2]; 313.15 K, x1 = 0.3565) of 887.6 ± 0.2 kg/m3. It also gave a mass density ([2]; 313.15 K, x1 = 0.4694) of 895.34 ± 0.21 kg/m3, a mass density ([2]; 313.15 K, x1 = 0.5596) of 901.71 ± 0.21 kg/m3 and a mass density ([2]; 313.15 K, x1 = 0.6587) of 908.84 ± 0.22 kg/m3. For the same compound, the mass density ([2]; 313.15 K, x1 = 0.7478) was 915.46 ± 0.23 kg/m3, the mass density ([2]; 313.15 K, x1 = 0.8363) was 922.22 ± 0.24 kg/m3 and the mass density ([2]; 313.15 K, x1 = 0.9182) was 928.54 ± 0.25 kg/m3.

In the case of `CCCC(C)=O` [pentan-2-one], the mass density ([1]; 293.15 K) is reported as 807.47 ± 0.18 kg/m3, the mass density ([1]; 298.15 K) is reported as 802.46 ± 0.18 kg/m3 and the mass density ([1]; 303.15 K) is reported as 797.53 ± 0.18 kg/m3. It also gave a mass density ([1]; 308.15 K) of 792.52 ± 0.18 kg/m3 and a mass density ([1]; 313.15 K) of 787.44 ± 0.18 kg/m3.

Work on `CCCOC(C)=O` [propyl ethanoate] yielded a mass density ([1]; 293.15 K) of 887.97 ± 0.18 kg/m3, a mass density ([1]; 298.15 K) of 882.21 ± 0.18 kg/m3 and a mass density ([1]; 303.15 K) of 876.54 ± 0.18 kg/m3. For the same compound, the mass density ([1]; 308.15 K) was 870.81 ± 0.18 kg/m3 and the mass density ([1]; 313.15 K) was 864.95 ± 0.18 kg/m3.

`C1CCOCC1` [tetrahydropyran] showed a mass density ([1]; 293.15 K) of 884.08 ± 0.16 kg/m3, a mass density ([1]; 298.15 K) of 878.95 ± 0.17 kg/m3 and a mass density ([1]; 303.15 K) of 873.79 ± 0.17 kg/m3. For the same compound, the mass density ([1]; 308.15 K) was 868.67 ± 0.17 kg/m3 and the mass density ([1]; 313.15 K) was 863.43 ± 0.17 kg/m3.

Source: the NIST ThermoML archive (doi:10.1021/je300974g)
